Measured values as given in the CheMixHub viscosity set.
± gives the uncertainty stated by the source.

Assay: xn = mol fraction of the nth substance listed

C1CCCC1 + CCCO
101.3 kPa
Details	viscosity [mPa·s]
298.15 K, x1 = 0.0126	1.899 ± 0.015
298.15 K, x1 = 0.0784	1.708 ± 0.014
298.15 K, x1 = 0.1149	1.602 ± 0.014
298.15 K, x1 = 0.1574	1.49 ± 0.013
298.15 K, x1 = 0.1979	1.385 ± 0.013
298.15 K, x1 = 0.2531	1.254 ± 0.013
298.15 K, x1 = 0.289	1.17 ± 0.012
298.15 K, x1 = 0.3309	1.085 ± 0.012
298.15 K, x1 = 0.3663	1.017 ± 0.012
298.15 K, x1 = 0.3847	0.982 ± 0.012
298.15 K, x1 = 0.3986	0.959 ± 0.012
298.15 K, x1 = 0.4161	0.924 ± 0.012
298.15 K, x1 = 0.4387	0.888 ± 0.011
298.15 K, x1 = 0.4706	0.839 ± 0.011
298.15 K, x1 = 0.4885	0.807 ± 0.011
298.15 K, x1 = 0.5064	0.781 ± 0.011
298.15 K, x1 = 0.5132	0.772 ± 0.011
298.15 K, x1 = 0.5396	0.739 ± 0.011
298.15 K, x1 = 0.5459	0.726 ± 0.011
298.15 K, x1 = 0.557	0.709 ± 0.011
298.15 K, x1 = 0.563	0.703 ± 0.011
298.15 K, x1 = 0.5899	0.673 ± 0.011
298.15 K, x1 = 0.6188	0.639 ± 0.011
298.15 K, x1 = 0.6413	0.615 ± 0.011
298.15 K, x1 = 0.6734	0.587 ± 0.011
298.15 K, x1 = 0.7116	0.552 ± 0.011
298.15 K, x1 = 0.7421	0.529 ± 0.011
298.15 K, x1 = 0.7853	0.497 ± 0.011
298.15 K, x1 = 0.8171	0.478 ± 0.011
298.15 K, x1 = 0.8537	0.458 ± 0.011
298.15 K, x1 = 0.9793	0.412 ± 0.01
308.15 K, x1 = 0.0566	1.511 ± 0.013
308.15 K, x1 = 0.0958	1.374 ± 0.013
308.15 K, x1 = 0.1491	1.257 ± 0.013
308.15 K, x1 = 0.1968	1.105 ± 0.012
308.15 K, x1 = 0.2217	0.997 ± 0.012
308.15 K, x1 = 0.2344	0.927 ± 0.012
308.15 K, x1 = 0.2399	0.886 ± 0.011
308.15 K, x1 = 0.2558	0.874 ± 0.012
308.15 K, x1 = 0.2708	0.851 ± 0.011
308.15 K, x1 = 0.2943	0.815 ± 0.011
308.15 K, x1 = 0.3274	0.772 ± 0.011
308.15 K, x1 = 0.3677	0.719 ± 0.011
308.15 K, x1 = 0.4171	0.659 ± 0.011
308.15 K, x1 = 0.4901	0.582 ± 0.011
308.15 K, x1 = 0.5698	0.516 ± 0.011
308.15 K, x1 = 0.6573	0.457 ± 0.011
308.15 K, x1 = 0.7599	0.415 ± 0.01
308.15 K, x1 = 0.8996	0.392 ± 0.01
318.15 K, x1 = 0.0747	1.139 ± 0.012
318.15 K, x1 = 0.1126	1.074 ± 0.012
318.15 K, x1 = 0.2293	0.876 ± 0.011
318.15 K, x1 = 0.2845	0.769 ± 0.011
318.15 K, x1 = 0.3533	0.654 ± 0.011
318.15 K, x1 = 0.4	0.597 ± 0.011
318.15 K, x1 = 0.4414	0.539 ± 0.011
318.15 K, x1 = 0.4892	0.491 ± 0.011
318.15 K, x1 = 0.4949	0.484 ± 0.011
318.15 K, x1 = 0.5432	0.445 ± 0.01
318.15 K, x1 = 0.5458	0.443 ± 0.01
318.15 K, x1 = 0.5813	0.429 ± 0.01
318.15 K, x1 = 0.6285	0.412 ± 0.01
318.15 K, x1 = 0.6942	0.407 ± 0.01
318.15 K, x1 = 0.7867	0.402 ± 0.01
318.15 K, x1 = 0.8912	0.393 ± 0.01

NCCO + CCCO
viscosity [mPa·s], 101.3 kPa
Details	x1 = 0.0998	x1 = 0.1999	x1 = 0.3005	x1 = 0.4	x1 = 0.5	x1 = 0.6	x1 = 0.7	x1 = 0.8	x1 = 0.9
303.15 K	2.09 ± 0.04	2.56 ± 0.04	3.17 ± 0.05	3.97 ± 0.07	4.94 ± 0.09	6.22 ± 0.11	7.7 ± 0.13	9.64 ± 0.17	12 ± 0.2
313.15 K	1.66 ± 0.03	2 ± 0.03	2.42 ± 0.04	2.97 ± 0.05	3.63 ± 0.06	4.44 ± 0.08	5.41 ± 0.09	6.62 ± 0.12	8.11 ± 0.14
323.15 K	1.35 ± 0.02	1.59 ± 0.03	1.92 ± 0.03	2.3 ± 0.04	2.75 ± 0.05	3.31 ± 0.06	3.93 ± 0.07	4.73 ± 0.08	5.69 ± 0.1

OCc1ccccc1 + CCCO
viscosity [mPa·s], 101 kPa
Details	x1 = 0.0744	x1 = 0.1531	x1 = 0.2366	x1 = 0.3252	x1 = 0.4196	x1 = 0.5203	x1 = 0.6278	x1 = 0.7431	x1 = 0.8668
298.15 K	2.038 ± 0.092	2.197 ± 0.098	2.401 ± 0.11	2.651 ± 0.12	2.932 ± 0.13	3.25 ± 0.14	3.593 ± 0.16	3.99 ± 0.17	4.433 ± 0.19
303.15 K	1.796 ± 0.082	1.918 ± 0.087	2.083 ± 0.094	2.288 ± 0.1	2.52 ± 0.11	2.783 ± 0.12	3.071 ± 0.13	3.404 ± 0.15	3.776 ± 0.16
308.15 K	1.587 ± 0.073	1.687 ± 0.077	1.828 ± 0.083	2.002 ± 0.09	2.201 ± 0.099	2.429 ± 0.11	2.678 ± 0.12	2.967 ± 0.13	3.292 ± 0.14
313.15 K	1.368 ± 0.064	1.447 ± 0.067	1.562 ± 0.072	1.709 ± 0.078	1.877 ± 0.086	2.07 ± 0.094	2.282 ± 0.1	2.53 ± 0.11	2.807 ± 0.12

NCCO + CCO
viscosity [mPa·s], 100 kPa
Details	x1 = 0.1	x1 = 0.2	x1 = 0.3	x1 = 0.4	x1 = 0.5	x1 = 0.6	x1 = 0.7	x1 = 0.8	x1 = 0.9
303.15 K	1.33 ± 0.02	1.73 ± 0.03	2.3 ± 0.04	3.05 ± 0.05	–	5.37 ± 0.09	7.03 ± 0.12	–	11.6 ± 0.2
313.15 K	1.11 ± 0.02	1.42 ± 0.02	1.83 ± 0.03	2.34 ± 0.04	3.05 ± 0.05	3.93 ± 0.07	5.03 ± 0.09	6.32 ± 0.11	7.87 ± 0.14
323.15 K	0.967 ± 0.016	1.19 ± 0.02	1.47 ± 0.03	1.85 ± 0.03	2.34 ± 0.04	2.95 ± 0.05	3.7 ± 0.06	4.54 ± 0.08	5.57 ± 0.1
